Experimental data from patent US20260345635A1, “SPRAY DRIED TREPROSTINIL FORMULATION” (Insmed Incorporated, priority 2023, published 2026).

Experiments:
[1] = Aerosol performance of TPIP by NGI with four RS01 devices of different resistance; format: physicochemical
Procedure: FIGS. 8A-8C are graphs showing TP Fine Particle Fraction (FPF) (FIG. 8A); Fine Particle Dose (FPD) as a Function of Device Resistance for the 8 mg (blue), 16 mg (orange), and 32 mg (gray) Capsule Dose (FIG. 8B); and TP FPD as a Function of Capsule Dose for Each Device (FIG. 8C). Trend lines are only shown for the UHR and HR DPIs in FIG. 8C. The ultra-high resistance (UHR), the high resistance (HR), the medium resistance (MR) and the low resistance (LR) devices were tested at 40, 60, 85 and 100 LPM, respectively.
The aerosolized composition is administered to a patient in need of treatment of PH, e.g., PAH or PH associated with interstitial lung disease (PH-ILD). In one embodiment, the aerosolized composition is administered to a patient in need of treatment of pulmonary fibrosis (e.g., PH-ILD where the ILD is pulmonary fibrosis). The aerosolized composition can be characterized by certain parameters known to those of skill in the art, such as fine particle fraction (FPF), fine particle dose (FPD), emitted dose (ED), mass median aerodynamic diameter (MMAD) and/or particle size and distribution. In embodiments, these parameters are measured by NGI. In embodiments, the NGI uses a flow rate corresponding to a 3 kPa to 4.5 kPa air pressure drop relative the resistance of the DPI. In embodiments, the pressure drop is 4 kPa. For example, the performance of an ultra high resistance (UHR), high resistance (HR) and medium resistance (MR) devices may be evaluated by drawing 4 L of air through the DPI at a flow rate of 40, 60 and 85 LPM, respectively, corresponding to the 4 kPa air pressure drop. Aerosol characterization data for the above-noted parameters can be compared across different DPI devices (with different resistances). In embodiments, the mean inhaler resistance of a high resistance DPI used to achieve the parameters described herein ranges from 0.025 to 0.040 kPA^1/2 (L/min^−1)^−1. In embodiments, the mean inhaler resistance of a high resistance DPI used to achieve the parameters described herein ranges from 0.030 to 0.040 kPA^1/2 (L/min^−1)^−1. In embodiments, the mean inhaler resistance of a high resistance DPI used to achieve the parameters described herein ranges from about 0.034 to about 0.036 kPA^1/2 (L/min^−1)^−1.
Four Plastiape RS01 Model 7 DPIs (Plastiape S. p.A., Osnago, Italy) differ with respect to their device resistance: Ultra-high Resistance (UHR, code 239700005AA), High Resistance (HR, code 239700002AA), Medium Resistance (MR, code 239700006AA) and Low Resistance (LR, code 239700001AB). The pressure drop across each device containing an empty capsule was measured as a function of flow rate between 30 and 120 L/min (LPM). The present disclosure teaches that the high resistance DPI device is selected for evaluation and use. A peak inspiratory flow rate of 80 LPM, 60 LPM, 40 LPM, or 30 LPM corresponds to a pressure drop of 5.4 kPa, 4 kPa, 1.4 kPa, or 0.89 kPa, respectively, for the high resistance DPI.
In this Example, Applicant investigated the aerosol performance of TPIP in response to changes in capsule fill, device resistance, and inspiratory flow rate to enable selection of an inhaler for clinical use. Capsules containing 8, 16 or 32 mg of TPIP (80, 160, or 320 μg TP, respectively) were evaluated using four breath-actuated RS01 devices with low, medium, high or ultra-high inspiratory resistances, creating 12 different capsule and device configurations for evaluation.
The TP aerosol particle size distribution profiles for the UHR, HR, MR, and LR DPI devices are shown in FIGS. 7A-7C for the 8, 16 and 32 mg TPIP capsules, respectively. The TP aerosol particle size distribution profiles are polydisperse for the LR, MR and HR devices with the UHR device showing a trend towards a less polydisperse profile. The values for the total mass recoveries, emitted dose, MMAD, GSD, FPF, and FPD for the UHR, HR, MR, and LR devices loaded with 8, 16 and 32 mg TPIP capsules are shown in Table 5.

[2] = In vitro aerosol performance of TPIP from HR RS01 DPI by Next Generation Impactor with breath simulator; format: physicochemical; settings: 30 LPM; for FPD (<5 μm), TP: 16 mg capsule
Procedure: All the experiments in the following examples of present disclosure were performed with the RS01 Model 7 Plastiape (Plastiape S.p.A., Osnago, Italy) high resistance (HR) (code 239700002AA) DPI device for evaluation. The following examples relate to in vitro aerosol performance of the capsules containing 16 and 32 mg TPIP utilizing the HR RS01 Plastiape device in response to more clinically relevant inhalation profiles deviating from the rectangular wave profile. The aerosol performance were evaluated at different inhalation volumes of 4 L, 2 L or 1 L and at a different peak inspiratory flow rate of 60 LPM corresponding to a pressure drop of 4 kPa or 30 LPM corresponding to a pressure drop of 0.89 kPa across the device to reflect a diverse set of user scenarios.
An RS01 Model 7 Plastiape (Plastiape S.p.A., Osnago, Italy) high resistance (HR) (code 239700002AA) DPI device was used for evaluation. The pressure drop across the HR device containing an empty capsule was measured as a function of flow rate between 30 to 100 L/min (LPM).
To evaluate the differences in aerosol performance in response to different breathing profiles, TPIP aerosol emitted from the HR Plastiape device was delivered to the NGI (MSP Corp., Shoreview, MN) at ambient temperatures and low humidity (<45% RH) under various scenarios generated by the breathing simulator (BRS 3100, Copley), as presented in FIG. 1. A mixing inlet (Copley) was attached in between the pre-separator and the induction port to allow a constant flow rate of 30 or 60 LPM to be achieved through the NGI, while varying the change in inhalation profiles from the HR Plastiape device via BRS system. The outlet port of the NGI was connected to a vacuum pump drawing 30 or 60 LPM airflow (X) via a critical flow controller (TPK 2100, Copley), and an airflow of 30 or 60 LPM (Y) was drawn into the mixing inlet to ensure that initially no airflow (X-Y=0) was drawn through the inhaler. Aerosolization of the powder into the NGI was triggered by the BRS system via a diversion valve that redirects the airflow (Y) into the BRS system. For example, if 30 LPM airflow of Y is redirected to the BRS system, this would cause 30 LPM airflow to be drawn through the inhaler and into the mixing inlet. Therefore, the simulated inhalation profile generated by the BRS system is identical to the inhalation profile through the inhaler.
The BRS software was manually programmed through a Word Pad script to simulate inhalation acceleration rates of 20, 5.88, 2, 1, and 0.5 L/sec^2 corresponding to 50, 170, 500, 1000, and 2000 millisecond (ms) ramp times for a total inhaled volume of 4 L, and for 2 and 1 L inhalation volumes at both extreme acceleration rates to achieve the 60 LPM flow rate. Additionally, the breathing profile scripts for the 1, 2, and 4 L inhalation volumes at 20 and 0.5 L/s^2 (corresponding to 50 and 2000 ms ramp times) to reach the 30 LPM flow rate are included. A trapezoidal waveform was used to maintain the 4 L total inhalation volume as well as to keep the maximum inhalation flow rate at 60 LPM corresponding to the 4 kPa pressure drop across the device (FIG. 2A). Additionally, the breathing profiles with reduced inhalation volumes of 1 and 2 L were evaluated at the two extreme acceleration rates of 20 and 0.5 L/s^2 (corresponding to 50 and 2000 ms ramp times) for the 60 LPM inspiratory flow rate (FIG. 2B), and 25 and 1000 ms ramp times for the 30 LPM inspiratory flow rate (FIG. 2C).
The aerosol performance of each inhalation profile was characterized for TP with respect to its emitted dose (ED), mass median aerodynamic diameter (MMAD), geometric standard deviation (GSD), fine particle fraction<5 μm (FPF) and fine particle dose<5 μm (FPD) as described below. The total recovery of TP was also measured to provide assurance that each experiment was conducted acceptably. […]

[3] = 16 mg capsule, all four devices
[4] = 32 mg capsule, LR device, 100 LPM
[5] = 32 mg capsule, MR device (printed MA), 85 LPM

## CCCCCCCCCCCCCCCCOC(=O)COc1cccc2c1C[C@H]1C[C@@H](O)[C@H](CC[C@@H](O)CCCCC)[C@H]1C2 [TP, treprostinil palmitil]
[1]; [3]
  FPD: 98 to 104 µg
  FPF: 71-81%
[1]; [4]
  FPD (<5 μm), TP: 155 µg
  FPF (<5 μm): 58%
[1]; [5]
  FPD (<5 μm), TP: 168 µg
  FPF (<5 μm): 62%
[1]; 32 mg capsule, UHR and HR devices
  FPD: 197 to 200 µg
[1]; 32 mg capsule, all four devices
  FPF: 58-76%
[2]; 16 mg capsule, 1, 2, 4 L, 25 ms ramp
  ED: 76%
[2]; 16 mg capsule, 1, 2, 4 L, 1000 ms ramp
  emitted doses: 72-75%
[2]; 25 ms ramp, 1 L
  FPD (<5 μm), TP: 93 µg
[2]; 25 ms ramp, 4 L
  FPD (<5 μm), TP: 92 µg
[2]; 1000 ms ramp, 1 L
  FPD (<5 μm), TP: 87 µg
[2]; 1000 ms ramp, 4 L
  FPD (<5 μm), TP: 90 µg
